Our source for the cytotoxicity values is ChEMBL document CHEMBL3507680, “University of Dundee, Gates Library screen for HepG2 cell viability”.

A short description of the series: Human HepG2 cell viability assay in 384 well format. It counts as toxicity, cell-based. Conditions: HepG2 cells, read-out: Inhibition. On the set-up: dose 125 nL, time 70.5 hour; concentration not given beside the values.
Turning to `CN(C)c1nccnc1N1CC[C@@]2(O)CCNC[C@H]2C1`, the cytotoxicity at 70.5 h was found to be 9.65%.

Turning to `Cc1ccc(-c2nc(CC3CCN(C)CC3)no2)cc1N1CCNC1=O`, the cytotoxicity at 70.5 h is -7.33%. For `CC(C)Cc1cc(CNC(=O)c2ccccc2C2CCNC2)no1` (centres undefined) the value was -17.5%; for `O=C(O)C1(Oc2ccc(Cl)cc2)CCN(C2CCOCC2)CC1`, -17.1%; for `Cc1cc(CC(C)NC(=O)c2cccc(CC3CCNCC3)c2)[nH]n1` (centres undefined), -2.93%. On to `CC(C)=CCN1C(=O)[C@H]2CC[C@@H]1CN(C(=O)CCc1nc(Cl)n[nH]1)C2`, for which the cytotoxicity at 70.5 h is -14.8%. For `COc1ccccc1N1CCN(C(=O)CCn2ccc(C)n2)CC1(C)C` the value was -5.62%. The value for `Cc1ccc(C(=O)N2CCC3(CCC(=O)N(CCN(C)C)C3)CC2)nc1` was -3.11%; that for `CCOc1ccc(C(=O)CCC(=O)NCc2csc(N)n2)cc1C` was -11.5%.

For `CC/C=C(\C)CN1CCC(CNC(=O)c2c[nH]c(=O)c(Cl)c2)C1` (centres undefined), the cytotoxicity at 70.5 h stood at 12.8%. For `CN(Cc1ccccn1)C(C(=O)O)c1ccc2c(c1)OCO2` (centres undefined) the value was -2.22%; for `CN(Cc1cn(C2CCNCC2)nn1)CC1CCCO1` (centres undefined), -9.31%; for `CC(C)c1nccn1CCCNC(=O)c1ccc(-c2ccncc2)nc1`, 17.9%.

With `CCCN(CCc1ccccc1)C(=O)c1ccccc1NCC(=O)O`, the cytotoxicity at 70.5 h was -7.74%. In the case of `CCc1cc(CN(C)C(=O)CN2CC3(CCNCC3)OC2=O)on1`, the cytotoxicity at 70.5 h was -2.42%. For the molecule `COC[C@]1(O)CCN(C(=O)c2cccc(CN(C)C)c2)CC1(C)C`, the cytotoxicity at 70.5 h is -5.34%. The value for `O[C@H]1[C@H](NCCc2ccccn2)c2ccccc2C12CCNCC2` was 20.6%; that for `CC(=O)N1CCc2[nH]cnc2C12CCN(C(=O)CCn1cccn1)CC2` was 1.39%; that for `COc1ccc(C(=O)N2CCOCC(CO)C2)cc1N1CCOCC1` (centres undefined) was -3.09%. Consider `CC(C)c1nccc(CN2CCC(O)(CN3CCCCC3)C2)n1` (centres undefined), for which the cytotoxicity at 70.5 h was -4.46%. The value for `O=C(CN1CCN(c2ncccn2)[C@@H]2CS(=O)(=O)C[C@@H]21)N1CCCCC1` was -1.85%; that for `Cc1nc(CCN2CCC(Oc3ccccc3F)CC2)c(C)s1` was 8.34%; that for `CCc1cnc(NCCSc2cnn[nH]2)nc1` was 28.2%. For `Cc1cc(C(=O)N2C[C@@H](CN3CCCCC3)[C@@H](CO)C2)ccc1O` the value was -5.69%; for `CC(C(=O)O)N1CCc2onc(-c3ccc(F)c(F)c3)c2C1` (centres undefined), -6.87%. The value for `CNC(=O)c1cn2cc(-c3ccccc3Cl)n(CC=C(C)C)c(=O)c2n1` was 35.1%; that for `CCC1CN(C(=O)c2cccnc2O)CCC(=O)N1Cc1ccccc1` (centres undefined) was -3.15%. In the case of `COc1ccccc1-c1noc(CCC(=O)NC(C)Cn2cccn2)n1` (centres undefined), the cytotoxicity at 70.5 h is -3.38%. For `CCNc1ncc(C(=O)N(C)C(C)c2ccc3c(c2)OCCO3)cn1` (centres undefined) the value was -2.94%. `CNC(=O)c1noc(CN2CC[C@](C)(O)[C@H](C)C2)n1`: the cytotoxicity at 70.5 h is -8.07%.

Regarding `Cc1cccc(=O)n1CCC(=O)N1CCC2(CC1)OCCCC2O` (centres undefined), the cytotoxicity at 70.5 h is -3.41%. The value for `CCc1csc(CNC2CCN(Cc3ccccc3)C2)n1` (centres undefined) was -8.44%; that for `CCNC(=O)[C@@H]1C[C@@H](N)CN1C(=O)C1(c2ccc(OC)cc2)CCCC1` was -9.96%; that for `CCN1CCN(C(C)(C)CNc2nc(C)cc(C3CCC3)n2)CC1` was -5.33%. For `CCCc1ncc(CN(CCOC)Cc2cccs2)cn1` the value was -1.12%; for `COc1cccn(CC(=O)N2CCCC3(CCCCC3)C2)c1=O`, -4.6%. With `O=C(O)c1nn(CC2CC2)c2c1CN(S(=O)(=O)c1cccnc1)CC2`, the cytotoxicity at 70.5 h is -11%. For `Cc1cc(C)c2c(NC(C)c3nncn3C3CCCC3)ncnc2n1` (centres undefined) the value was -4.92%. As to `CN(C)[C@H]1CN(C(=O)CCc2cccc(F)c2)C[C@@H]1C1CC1`, the cytotoxicity at 70.5 h was -5.67%. Take `Cc1n[nH]c(CN2CCN(c3ncnc4scc(C)c34)CC2)c1Cl`: the cytotoxicity at 70.5 h is -8.15%.

Regarding `CCn1cc(-c2n[nH]c(=O)n2-c2ccc(OC)c(OC)c2)c(C)n1`, the cytotoxicity at 70.5 h is -4.02%. The value for `Cn1c(CN2CCCCC2)nnc1C1CCN(c2nccc(N)n2)CC1` was -7.78%. For `COc1cc(N(C)Cc2cc(C(C)(C)C)n[nH]2)ncn1` the value was 17.2%; for `O=C(CC1=CSC2=NCCCN12)N1CCCCC1c1cccc(F)c1` (centres undefined), 20.1%; for `CN1C(=O)CC(C(=O)O)C12CCN(Cc1ccc(Cl)c(Cl)c1)CC2` (centres undefined), -7.82%.

Consider `COc1ccc(OC2CCN(C(=O)C(C)Cn3cccn3)CC2)cc1` (centres undefined), for which the cytotoxicity at 70.5 h is -2.17%. The value for `CN1CCc2nc(N(C)C)nc(N3CCC(O)CC3)c2C1` was -9.46%; that for `COc1cccn(CC(=O)N2CCCC3(CCCO3)CC2)c1=O` (centres undefined) was -7.92%; that for `Cc1ccccc1S(=O)(=O)N1CCc2c(ncnc2N(C)C)C1` was 0.46%. For the molecule `Cc1cccn2c(CNC(C)CO)cnc12` (centres undefined), the cytotoxicity at 70.5 h came out at 40.8%. Take `C=C(C)COc1ccccc1C(=O)N(C)C(C)c1c(C)n[nH]c1C` (centres undefined): the cytotoxicity at 70.5 h was -2.31%.

As for `Cc1cc(C)nc(NC2CCCN(CCCc3ccccc3)C2)n1` (centres undefined), the cytotoxicity at 70.5 h is 54.5%. For `CCN(CCn1cccn1)Cc1nc(-c2ccc(F)cc2)oc1C` the value was -6.91%; for `O=C(O)C(c1ccc2c(c1)OCCO2)N1CCC(N2CCSCC2)CC1` (centres undefined), -1.86%. For `CC(C)n1cnnc1CN(C)Cc1cnc(-c2cccs2)nc1` the value was 0.122%; for `Cc1nn(C)c(C)c1CN(CCO)C(=O)C1COc2ccccc2C1` (centres undefined), 30%. The value for `CC(C)CN1CC2(CCN(C(=O)c3nc4ncccn4n3)CC2)CC1=O` was -17.1%; that for `Cc1cc(C)n(CCN2CCOC(CNc3cccnn3)C2)n1` (centres undefined) was -4.33%; that for `CC(C)OCCCNC(=O)CS(=O)(=O)Cc1cccc(Cl)c1` was -10.6%.

For the molecule `Cc1ccc(C(=O)NCc2cccnc2N(C)C)s1`, the cytotoxicity at 70.5 h is -10.9%. `O=C(CC1CCCCC1)NC1CCCCNC1=O` (centres undefined): the cytotoxicity at 70.5 h was -9.32%.

As to `O=C(CS(=O)(=O)Cc1ccc(F)cc1)NC1CCCCNC1=O` (centres undefined), the cytotoxicity at 70.5 h is -6.01%. For `CC(NC(=O)c1ccoc1)c1ccc2c(c1)CCC(=O)N2` (centres undefined) the value was -0.0886%; for `Cc1ccsc1CNC(=O)NC(C)c1ccc2c(c1)CCC(=O)N2` (centres undefined), -13.4%. For `CCCc1nnc(NC(=O)NC(C)Cn2cccn2)s1` (centres undefined) the value was -0.592%; for `CCn1c(C(=O)N2CCCN(CC(N)=O)CC2)cc2ccccc21`, -3.29%.

Consider `COC(=O)C(NC(=O)C1CCC1)c1cc(F)ccc1F` (centres undefined), for which the cytotoxicity at 70.5 h was -7.83%. Regarding `NC(=O)C1CCN(C(=O)c2cccn2Cc2cccs2)C1` (centres undefined), the cytotoxicity at 70.5 h is -0.693%. The value for `c1ccc(-c2nnc(CN3CCCC3Cn3cncn3)o2)cc1` (centres undefined) was -0.362%. As to `COC(=O)C(NC(=O)CCc1ccco1)c1cc(F)ccc1F` (centres undefined), the cytotoxicity at 70.5 h is -7.98%. The value for `CCOCC(O)CN1CCN(C(=O)c2cc(Cl)ccc2F)CC1` (centres undefined) was 2.85%; that for `Fc1ccc(-c2nnc(CN3CCCC(Cn4cncn4)C3)o2)cc1` (centres undefined) was -5.49%; that for `CCOCC(O)CN1CCN(C(=O)c2cccc(OC)c2)CC1` (centres undefined) was -2.53%. The value for `CCOCC(O)CN1CCN(C(=O)c2cc(F)cc(F)c2)CC1` (centres undefined) was -2.71%; that for `c1ccc(OCCCN2CCOC(CNc3cccnn3)C2)cc1` (centres undefined) was -6.97%. For `COc1ccc(C)cc1CC(=O)NS(=O)(=O)c1ccc(C(N)=O)cc1` the value was -6.98%. Regarding `CC(=O)N1CCCC1C(=O)NCCOc1cccc(F)c1` (centres undefined), the cytotoxicity at 70.5 h is -12.8%.

As to `CC(=O)N1CCCC1C(=O)NCCOc1ccc(C(C)C)cc1` (centres undefined), the cytotoxicity at 70.5 h was -1.19%. On to `CN(Cc1ccco1)C(=O)C1CSCN1C(=O)C1CCC1` (centres undefined), for which the cytotoxicity at 70.5 h was -8.79%. For `Cc1nc(C)c(CN2CCC(N(C)Cc3nnc(C4CC4)o3)C2)s1` (centres undefined) the value was -12.3%. Turning to `CCN(CC)Cc1ccc(C(=O)N2CCCC2c2cnn(C)c2)o1` (centres undefined), the cytotoxicity at 70.5 h is 21.2%.

`Cc1ccc(CN(C)C(=O)CN2CCCC(Cn3cncn3)C2)o1` (centres undefined): the cytotoxicity at 70.5 h is -5.76%. The value for `CC(=O)N1CCCC(C(=O)NCCOc2cc(C)cc(C)c2)C1` (centres undefined) was 18%.

Regarding `CC(=O)NCc1ccc(C(=O)N2CCCC2c2c(C)nn(C)c2C)o1` (centres undefined), the cytotoxicity at 70.5 h was -9.03%.

Turning to `Cc1nn(C)c(C)c1C1CCCN1C(=O)CCc1ccco1` (centres undefined), the cytotoxicity at 70.5 h was -1.9%. The value for `CN(Cc1cccs1)C(=O)CN1CCCC(Cn2cncn2)C1` (centres undefined) was -5.28%; that for `Cc1ccc(CNC(=O)Nc2nncs2)cn1` was -6.07%. For `Cc1ccc(CNC(=O)Nc2nccs2)cn1` the value was -4.14%; for `Cc1ccc(-c2nc(CN3CCN(CCO)CC3)co2)cc1`, -9.54%.

Turning to `CCOCCCn1c(NC(=O)c2cnc(C)s2)nc2ccccc21`, the cytotoxicity at 70.5 h was 4.48%. With `CN(Cc1ccncc1)C(=O)[C@H]1CSCN1C(=O)OC(C)(C)C`, the cytotoxicity at 70.5 h was -2.79%. For `CN(Cc1ccsc1)C(=O)CN1CCCC(Cn2cncn2)C1` (centres undefined) the value was -5.89%; for `CC(=O)NCc1ccc(C(=O)N2CCCC2c2cnn(C)c2)s1` (centres undefined), -0.6%. On to `Cc1csc(C2CCCCN2C(=O)c2cc(C)n(C)n2)n1` (centres undefined), for which the cytotoxicity at 70.5 h turned out to be 25.5%. The value for `Cc1csc(C2CCCCN2C(=O)c2cc(C(C)C)[nH]n2)n1` (centres undefined) was 1.99%; that for `Cc1nc(CN(C)C2CCN(Cc3ccc(Cl)s3)C2)no1` (centres undefined) was -4.8%. For `N#Cc1ccsc1NC(=O)CCN1CCn2c(nnc2C2CC2)C1` the value was -7.52%. For `N#Cc1ccsc1NC(=O)CN1CCn2c(nnc2C2CC2)C1` the value was -6.74%. As to `Cc1csc(C2CCCCN2C(=O)c2c[nH]c(C)n2)n1` (centres undefined), the cytotoxicity at 70.5 h amounted to 0.914%.
